From patent publication US4889848A, “Tricyclic pyridine derivatives” (Hoffmann-La Roche Inc., priority 1988, dated 1989)
Where two headings read alike, the source gives them in different places.

Legend:
[1] = tested on: spasmodic seizures caused by pentetrazole; assay: antipentetrazole test (protection from pentetrazole-induced seizures); type: in vivo, female rats; settings: Rattus norvegicus, po, read-out: ED50 (dosage which protects 50% of the experimental animals from the spasmodic seizures caused by pentetrazole)
Protocol: As mentioned earlier, the compounds of formula I have valuable pharmacological properties.
(§1) In this animal test, the compound under investigation is adminstered orally or intravenously to female rats and 30 minutes later there are administered intraperitioneally 120 mg/kg of pentetrazole, which causes emprosthotonus and tonic stretchings of the fore and/or hind limbs in unprotected animals 1-4 minutes after the injection. Ten (10) experimental animals are used per dosage of test substance. After counting the protected experimental animals, the ED50 is determined according to the […]. The ED50 is that dosage which protects 50% of the experimental animals from the spasmodic seizures caused by pentetrazole. The results which have been obtained with representative members of the class of compound defined by formula I in the experiment described previously are compiled in the following Table. Moreover, the Table contains data concerning the acute toxicity (LD50) of some of the compounds of formula I in mg/kg in the case of single oral administration to mice.

[2] = acute toxicity, single oral administration to mice; settings: mouse, in vivo, p.o.
Protocol: as §1

[3] = female rats, compound given 30 minutes before 120 mg/kg pentetrazole intraperitoneally, 10 animals per dosage

## O=C(c1cc(-c2ccccc2)c(=O)n2ccc3ccc(Cl)cc3c12)N1CCC[C@H]1CO [H, (S)-1-[(10-chloro-4-oxo-3-phenyl-4H-benzo[a]quinolizin-1-yl)carbonyl]-2-pyrrolidinemethanol]
[1]
  ED50: 1.3 mg/kg
[2]
  LD50: > 3000 mg/kg

## CCN(CCOC)C(=O)c1cc(-c2ccccc2)c(=O)n2ccc3ccsc3c12 [M, N-ethyl-N-(2-methoxyethyl)-7-oxo-8-phenyl-7H-thieno[2,3-a]quinolizine-10-carboxamide]
[1]
  ED50: 5 mg/kg
[2]
  LD50: 5000 mg/kg

## COC[C@H]1CCCN1C(=O)c1cc(-c2ccccc2)c(=O)n2ccc3ccc(Cl)cc3c12 [Y, (R)-1-[(10-Chloro-4-oxo-3-phenyl-4H-benzo[a]quinolizin-1-yl)carbonyl]-2-(methoxymethyl)pyrrolidine]
[1]
  ED50: 0.41 mg/kg
[2]
  LD50: 5000 mg/kg

## COC1CCN(C(=O)c2cc(-c3ccccc3)c(=O)n3c2-c2sccc2CC3)C1 (centres unmarked) [U, 1-[(4,5-Dihydro-7-oxo-8-phenyl-7H-thieno[2,3-a]quinolizin-10-yl)carbonyl]-3-methoxypyrrolidine]
[1]
  ED50: 2.7 mg/kg
[2]
  LD50: > 5000 mg/kg

## COCCN(C)C(=O)c1cc(-c2ccccc2)c(=O)n2ccc3ccsc3c12 [N, N-(2-Methoxyethyl)-N-methyl-7-oxo-8-phenyl-7H-thieno[2,3-a]quinolizine-10-carboxamide]
[1]
  ED50: 0.97 mg/kg
[2]
  LD50: 625 mg/kg

## COCCNC(=O)c1cc(-c2ccccc2)c(=O)n2c1-c1cc(Cl)ccc1CC2 [Compound A, 10-Chloro-6,7-dihydro-N-(2-methoxyethyl)-4-oxo-3-phenyl-4H-benzo[a]quinolizine-1-carboxamide]
[1]
  ED50: 2.6 mg/kg
[2]
  LD50: > 5000 mg/kg

## COC[C@H]1CCCN1C(=O)c1cc(-c2ccccc2)c(=O)n2ccc3ccsc3c12 [O, (R)-2-(methoxymethyl)-1-[(7-oxo-8-phenyl-7H-thieno[2,3-a]quinolizin-10-yl)carbonyl]pyrrolidine]
[1]
  ED50: 0.49 mg/kg
[2]
  LD50: 5000 mg/kg

## CO[C@@H]1CCN(C(=O)c2cc(-c3ccccc3)c(=O)n3ccc4ccsc4c23)C1 [R, (R)-3-methoxy-1-[(7-oxo-8-phenyl-7H-thieno[2,3-a]-quinolizin-10-yl)carbonyl]pyrrolidine]
[1]
  ED50: 0.17 mg/kg
[2]
  LD50: 1250 mg/kg

## COC[C@@H]1CCCN1C(=O)c1cc(-c2ccccc2)c(=O)n2ccc3ccsc3c12 [F, (S)-2-methoxymethyl-1-[(7-oxo-8-phenyl-7H-thieno[2,3-a]quinolizin-10-yl)carbonyl]pyrrolidine]
[1]
  ED50: 2.8 mg/kg
[2]
  LD50: 5000 mg/kg

## CCOC1CCN(C(=O)c2cc(-c3ccccc3)c(=O)n3c2-c2cc(Cl)ccc2CC3)C1 (centres unmarked) [Q, 1-[(10-Chloro-6,7-dihydro-4-oxo-3-phenyl-4H-benzo[a]quinolizin-1-yl)carbonyl]-3-ethoxypyrrolidine]
[1]
  ED50: 3.1 mg/kg
[2]
  LD50: > 5000 mg/kg

## COC1CCN(C(=O)c2cc(-c3ccccc3)c(=O)n3ccc4ccc(Cl)cc4c23)CC1 [L, 1-[(10-Chloro-3-phenyl-4-oxo-4H-benzo[a]quinolizin-1-yl)carbonyl]-4-methoxypiperidine]
[1]
  ED50: 0.22 mg/kg
[2]
  LD50: > 5000 mg/kg

## CC1CN(C(=O)c2cc(-c3ccccc3)c(=O)n3c2-c2cc(Cl)ccc2CC3)CC(C)O1 (centres unmarked) [D, 4-[(6,7-Dihydro-4-oxo-3-phenyl-10-chloro-4H-benzo[a]quinolizin-1-yl)carbonyl]-2,6-dimethylmorpholine]
[1]
  ED50: 1.2 mg/kg
[2]
  LD50: > 5000 mg/kg

## CO[C@H]1CCN(C(=O)c2cc(-c3ccccc3)c(=O)n3ccc4ccsc4c23)C1 [S, (S)-3-methoxy-1-[(7-oxo-8-phenyl-7H-thieno[2,3-a]-quinolizin-10-yl)carbonyl]pyrrolidine]
[1]
  ED50: 0.87 mg/kg
[2]
  LD50: 5000 mg/kg

## COC1CN(C(=O)c2cc(-c3ccccc3)c(=O)n3ccc4ccsc4c23)C1 [V, 3-Methoxy-1-[(7-oxo-8-phenyl-7H-thieno[2,3-a]quinolizin-10-yl)carbonyl]azetidine]
[1]
  ED50: 0.13 mg/kg
[2]
  LD50: > 5000 mg/kg

## O=C(c1cc(-c2ccccc2)c(=O)n2c1-c1cc(Cl)ccc1CC2)N1CCC(O)CC1 [B, 1-[(10-Chloro-6,7-dihydro-4-oxo-3-phenyl-4H-benzo[a]quinolizin-1-yl)carbonyl]-4-piperidinol]
[1]; [3]
  ED50: 5.4 mg/kg
[2]
  LD50: > 5000 mg/kg

## COC[C@@H]1CCCN1C(=O)c1cc(-c2ccccc2)c(=O)n2c1-c1cc(Cl)ccc1CC2 [T, (S)-1-[(10-Chloro-6,7-dihydro-4-oxo-3-phenyl-4H-benzo[a]quinolizin-1-yl)carbonyl]-2-(methoxymethyl)pyrrolidine]
[1]
  ED50: 3.8 mg/kg
[2]
  LD50: > 5000 mg/kg

## O=C(c1cc(-c2ccccc2)c(=O)n2ccc3ccsc3c12)N1CCC[C@H]1CO [E, (S)-1-[(7-oxo-8-phenyl-7H-thieno[2,3-a]quinolizin-10-yl)carbonyl]-2-pyrrolidinemethanol]
[1]
  ED50: 3.5 mg/kg
[2]
  LD50: 625 mg/kg

## C[C@@H]1CN(C(=O)c2cc(-c3ccccc3)c(=O)n3c2-c2sccc2CC3)C[C@H](C)O1 [I, cis-4-[(4,5-dihydro-7-oxo-8-phenyl-7H-thieno[2,3-a]-quinolizin-10-yl)carbonyl]-2,6-dimethylmorpholine]
[1]; [3]
  ED50: 5.9 mg/kg
[2]
  LD50: > 5000 mg/kg

## O=C(c1cc(-c2ccccc2)c(=O)n2ccc3ccc(Cl)cc3c12)N1CCC[C@@H]1CO [W, (R)-1-[(10-Chloro-4-oxo-3-phenyl-4H-benzo[a]quinolizin-1-yl)carbonyl]-2-pyrrolidinemethanol]
[1]
  ED50: 0.51 mg/kg
[2]
  LD50: > 3000 mg/kg

## COC1CCN(C(=O)c2cc(-c3ccccc3)c(=O)n3c2-c2cc(Cl)ccc2CC3)CC1 [K]
[1]
  ED50: 0.56 mg/kg
[2]
  LD50: > 5000 mg/kg

## O=C(OCc1cc(-c2ccccc2)c(=O)n2c1-c1sccc1CC2)N1CCOCC1 [C, (4,5-Dihydro-7-oxo-8-phenyl-7H-thieno[2,3-a]quinolizin-10-yl)methyl 4-morpholinecarboxylate]
[1]
  ED50: 15.9 mg/kg

## COC1CCN(C(=O)c2cc(-c3ccccc3)c(=O)n3ccc4ccc(Cl)cc4c23)C1 (centres unmarked) [G, 1-[(10-chloro-4-oxo-3-phenyl-4H-benzo[a]quinolizin-1-yl)carbonyl]-3-methoxypyrrolidine]
[1]
  ED50: 0.12 mg/kg
[2]
  LD50: 2500 mg/kg

## COC[C@@H]1CCCN1C(=O)c1cc(-c2ccccc2)c(=O)n2ccc3ccc(Cl)cc3c12 [X, (S)-1-[(10-Chloro-4-oxo-3-phenyl-4H-benzo[a]quinolizin-1-yl)carbonyl]-2-(methoxymethyl)pyrrolidine]
[1]
  ED50: 1.1 mg/kg
[2]
  LD50: 5000 mg/kg

## COC1CCN(C(=O)c2cc(-c3ccccc3)c(=O)n3c2-c2cc(Cl)ccc2CC3)C1 (centres unmarked) [P, 1-[(10-Chloro-6,7-dihydro-4-oxo-3-phenyl-4H-benzo[a]quinolizin-1-yl)carbonyl]-3-methoxypyrrolidine]
[1]
  ED50: 0.31 mg/kg
[2]
  LD50: > 5000 mg/kg
